Results from patent US6495370B1, “Inhibition of glutathione transferase by haloenol lactones” (The Regents of the University of California, priority 1995, dated 2002).
Where two headings read alike, the source gives them in different places.

Columns and labels:
Format in all cases: biochemical
GST pi isozyme [1] = molecular target: T1, GST pi isozyme (Mus musculus, UniProt P19157); assay: Irreversible inhibition of GST pi: activity after incubation and exhaustive dialysis; settings: 10-fold excess of compound, 37° C., 3 hours, then dialysis against 6 changes of water
T1 construct: The three major mouse liver GST isoenzymes were purified according to established methods; from tissue; host or cells: liver of male CD-1 mice
Method: The dialyzed protein sample was dried by lyophilization. The recovered protein was re-dissolved in water, and specific enzyme activity was determined by measuring the protein content and GST activity.

GST pi isoenzyme [2] = molecular target: T2, GST pi isoenzyme (Mus musculus, UniProt P19157); assay: Time-dependent inhibition of purified GST pi isoenzyme (GSH/CDNB activity assay); settings: for enzyme activity of GST pi: 100 μM compound, GST 1.0 μM, after 5 minutes at 37° C.; for nature of inhibitory effect on GST pi isozyme: summary statement
T2 construct: The three major mouse liver GST isoenzymes were purified according to established methods; from tissue; host or cells: liver of male CD-1 mice
Method: (§1) The three major mouse liver GST isoenzymes were purified according to established methods. Male CD-1 mice, 25-35 g, were purchased from Charles River Breeding Laboratories, Inc. (Wilmington, Mass.). Animals were housed on autoclaved pine shavings in approved animal care facilities and fed ad libitum for 1 week prior to cervical dislocation.
Mice were killed by cervical dislocation and livers were removed, rinsed with ice-cold 10 mM Tris buffer (pH 7.4) containing 0.25 M sucrose, 1 mM EDTA and 1 mM DTT (buffer A). The tissues were homogenized in buffer A (1 g tissue/2 mL buffer). Centrifugation and all subsequent purification steps were carried out at 4° C. The homogenate was centrifuged at 10,000 g for 30 min. The supernatant fraction was then collected and centrifuged at 100,000 g for 80 min. Supernatant was next passed through a Sephadex G-25 Column (100 cm×2.5 cm) which had been pre-equilibrated in 25 mM potassium phosphate buffer (pH 7.4) containing 1 mM EDTA and 1 mM DTT (buffer B). Column eluants were monitored at 280 nm using an Isco-UA5 detector. The elutant from the G-25 column containing GST activity was applied to an affinity column (11 cm×2.5 cm, GSH-linked agarose, Sigma) at a flow rate of 0.64 ml/min. The first two GST isozymes were eluted using a linear gradient (0-75 mM) of GSH in buffer b (250 mL×250 mL). The third peak containing activity towards CDNB was eluted by using a linear gradient of increasing pH (7.4-9.0) in buffer b which was 75 mM in GSH (150 mL×150 mL). The three main peaks of activity were recovered and pooled separately. Each pool was concentrated to 25-30 mL in an Amicon ultrafiltration cell (Amicon, Inc., Beverly, Mass., USA) with a PM 10 membrane and dialyzed against 4L nanopure water. Pooled proteins were analyzed by ESI/MS to determine purity and subunit molecular weight. […]
(§2) For the enzyme inhibition studies, solutions of alpha, mu and pi glutathione S-transferase (1.0 μg/μl) were prepared in a 0.1 M potassium phosphate buffer (pH 6.5). […] Aliquots were withdrawn at 1, 3, 5, 8 and 12 min, and GST activity was measured using GSH and CDNB as substrates according to the method of Habig et al. (1974) J. Biol. Chem. 249:7130-7139.
In brief, the activity of the enzyme was determined in a 0.1 M potassium phosphate buffer (pH 6.5) containing 1 mM GSH and 1 mM CDNB using an extinction coefficient of 9.6 mM^−1 cm^−1. […] The rate of product formation was monitored by measuring the change in absorbance at 340 nm using a Shimadzu PC-2101 uv-visible spectrophotometer (Shimadzu Scientific Instruments, Columbia, Md., USA). Specific activities are based on protein concentrations as determined by the Bradford protein determination kit from Biorad, Hercules, Calif., USA, using bovine serum albumin as a reference.

GST pi isoenzyme [3] = molecular target: T2, GST pi isoenzyme; assay: Kinetic constants for inhibition of GST pi isoenzyme
Method: Compounds 1 and 2 were synthesized and purified as described in Example 1, and GST pi isoenzyme was isolated from mouse liver as described in Example 2. Enzyme inhibition studies were performed as described in Example 3, except that four different concentrations of inhibitor were used. Enzyme assays were performed as described in Example 3.

GST pi isozyme [4] = molecular target: T1, GST pi isozyme; assay: Time-dependent inhibition of GST pi with and without S-hexylglutathione; settings: haloenol lactone 2 200 μM
Method: FIG. 7: Inactivation of glutathione S-transferase (GST) pi isozyme by haloenol lactone 2. The GST concentration was 1.0 μM): ●, control; ▴, +haloenol lactone 2 (200 μM), no S-hexylglutathione; ▪, +haloenol lactone 2 (200 μM), +S-hexylglutathione (2,000 μM).
Enzyme inhibition studies and enzyme assays for this experiment were performed as described in Example 3. S-hexylglutathione dissolved in a 0.1 M potassium phosphate buffer (pH 6.5) was added in the incubation solution. […] In this experiment, we incubated compound 2 with GST-pi isozyme in the presence of S-hexylglutathione (2,000 μM), a competitive inhibitor of GST. […] (See FIG. 7).

GST mu = molecular target: T3, GST mu (Mus musculus, UniProt P10649); assay: Time-dependent inhibition of purified GST mu isoenzyme (GSH/CDNB activity assay); settings: 100 μM compound, GST 1.0 μM, after 5 minutes at 37° C.
T3 construct: The three major mouse liver GST isoenzymes were purified according to established methods; from tissue; host or cells: liver of male CD-1 mice
T3 sequence (P10649 2-218 limits assumed): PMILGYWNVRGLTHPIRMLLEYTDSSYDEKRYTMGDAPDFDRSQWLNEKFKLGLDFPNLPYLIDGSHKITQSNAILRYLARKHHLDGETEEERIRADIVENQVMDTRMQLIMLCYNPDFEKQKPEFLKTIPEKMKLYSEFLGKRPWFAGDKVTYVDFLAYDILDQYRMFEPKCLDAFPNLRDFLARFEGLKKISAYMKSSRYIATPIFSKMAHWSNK
Method: as §1
(§3) Mice were killed by cervical dislocation and livers were removed, rinsed with ice-cold 10 mM Tris buffer (pH 7.4) containing 0.25 M sucrose, 1 mM EDTA and 1 mM DTT (buffer A). The tissues were homogenized in buffer A (1 g tissue/2 mL buffer). Centrifugation and all subsequent purification steps were carried out at 4° C. […] Column eluants were monitored at 280 nm using an Isco-UA5 detector. […] Pooled proteins were analyzed by ESI/MS to determine purity and subunit molecular weight. […]
as §2
(§4) In brief, the activity of the enzyme was determined in a 0.1 M potassium phosphate buffer (pH 6.5) containing 1 mM GSH and 1 mM CDNB using an extinction coefficient of 9.6 mM^−1 cm^−1. […]

GST alpha = molecular target: T4, GST alpha (Mus musculus, UniProt P30115); assay: Time-dependent inhibition of purified GST alpha isoenzyme (GSH/CDNB activity assay); settings: 100 μM compound, GST 1.0 μM, after 5 minutes at 37° C.
T4 construct: The three major mouse liver GST isoenzymes were purified according to established methods; from tissue; host or cells: liver of male CD-1 mice
T4 sequence (P30115 2-221 limits assumed): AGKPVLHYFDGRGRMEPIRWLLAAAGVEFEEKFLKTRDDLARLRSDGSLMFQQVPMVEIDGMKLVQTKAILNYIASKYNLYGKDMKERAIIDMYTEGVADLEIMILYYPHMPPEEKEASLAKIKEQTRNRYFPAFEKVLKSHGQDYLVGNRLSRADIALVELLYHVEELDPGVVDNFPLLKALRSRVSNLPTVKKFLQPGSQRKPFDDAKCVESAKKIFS
Method: as §1, §3, §2, §4

[5] = GST pi 1.0 μM, 37° C., four inhibitor concentrations

T2 sequence (P19157 2-210 limits assumed): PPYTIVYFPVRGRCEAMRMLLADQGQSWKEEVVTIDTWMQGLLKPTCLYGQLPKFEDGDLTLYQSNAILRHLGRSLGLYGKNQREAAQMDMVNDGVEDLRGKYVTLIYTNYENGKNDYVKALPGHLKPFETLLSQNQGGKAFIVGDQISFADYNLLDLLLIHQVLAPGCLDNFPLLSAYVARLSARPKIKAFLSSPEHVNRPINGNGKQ
T1 sequence (P19157 2-210 limits assumed): as above

Row | SMILES | enzyme activity of modified GST remained relative to the control (GST pi isozyme [1]) [%] | restoration of GST activity by exhaustive dialysis (GST pi isozyme [1]) | enzyme activity of GST pi (GST pi isoenzyme [2]) | nature of inhibitory effect on GST pi isozyme (GST pi isoenzyme [2]) | Ki (GST pi isoenzyme [3]) [µM] | kinact (GST pi isoenzyme [3]; [5]) [s⁻¹] | kinact/KI (GST pi isoenzyme [3]; read-out: kinact/KI ratio) [M⁻¹ s⁻¹] | time in which the enzyme was totally inactivated (GST pi isozyme [4]; GST 1.0 μM, no S-hexylglutathione) [min] | enzyme activity of GST mu remained (GST mu) | Ki (GST pi isoenzyme [3]; GST pi 1.0 μM, 37° C., four inhibitor concentrations, read-out: KI) [µM] | kinact/KI (GST pi isoenzyme [3]; GST pi, read-out: kinact/KI ratio (converted)) [M⁻¹ s⁻¹] | enzyme activity of GST alpha remained (GST alpha) | effect of S-hexylglutathione on time-dependent inhibition of GST by compound 2 (GST pi isozyme [4]; S-hexylglutathione 2,000 μM, GST pi 1.0 μM)
1 | O=C1O/C(=C/Br)CC1CC=Cc1ccccc1 (stereo not shown) [compound 2, 3-Cinnamyl-5(E)-bromomethylidenetetrahydro-2-furanone] | 7.8 | not restored | completely inhibited | time-dependent and irreversible | 86.7 | 0.00933 | 108 | 8 | – | – | – | – | –
2 | O=C1O/C(=C/Br)CC1CC1OC1c1ccccc1 (stereo not drawn) [compound 1, 3-Cinnamyl-(α,β-epoxy)-5(E)-bromomethylidenetetrahydro-2-furanone] | – | – | completely inhibited | time-dependent and irreversible | – | 0.0198 | – | – | about 80% | 64.4 | 308 | about 80% | –
3 | CCCCCCSC[C@H](NC(=O)CC[C@H](N)C(=O)O)C(=O)NCC(=O)O [S-hexylglutathione, reference compound] | – | – | – | – | – | – | – | – | – | – | – | – | completely suppressed
